Data reported in US20160250185A1, “PHARMACEUTICAL COMPOSITION FOR C[…] MASS GAIN […]-PHENOTROPIL” (LATVIAN INSTITUTE OF ORGANIC SYNTHESIS, priority 2013, published 2016).
“Also recorded” adds a separate entry of the source. Marks after values point to notes of the source that are not given here.

Key:
[1] = Open field test, locomotor activity; assay type: in vivo; conditions: for locomotor effect compared with R-phenotropil: respective doses, S-enantiomer at 50 mg/kg; for time for which increase in locomotor activity was retained: single i.p., 50 mg/kg stated for R-phenotropil
Experimental: Locomotor activity was tested in an open field test 30, 60, 120, 180 and 240 min after a single i.p. injection of the racemic phenotropil and R- and S-enantiomers (FIG. 1A,B,C,D). […] R-phenotropil in 5, 10 and 50 mg/kg doses induced a statistically significant increase in locomotor activity in comparison with the control animals [F(3.31)=10.37, p<0.0001] (FIG. 1A,C). Furthermore, R-phenotropil in the dose of 50 mg/kg retained a statistically significant increase in locomotor activity for up to 240 min [F(9.80)=24.03, p<0.0001] (FIG. 1B,D).

[2] = Forced swimming test (duration of immobility), antidepressive effect; assay type: in vivo; conditions: for doses significantly reducing duration of immobility vs control group: 30 min after i.p. injection, doses tested 10, 50 and 100 mg/kg
Experimental: The antidepressive effect of the racemic, R- and S-phenotropil was tested in a forced swimming test (by determining the duration of immobility) 30 min after the i.p. injection of the compounds in doses 10, 50 and 100 mg/kg (FIG. 2).

[3] = Rotating rod test, muscle strength and coordination; assay type: in vivo; conditions: i.p. 50, 100, 250 and 500 mg/kg, 30-180 min, probit analysis
Experimental: (§1) None of the compounds affected rectal temperature at the dose of 500 mg/kg (Table 1).
(§2) The compounds were administered in i.p. doses of 50, 100, 250 and 500 mg/kg. The effect of the substances in different tests was evaluated 30, 60, 120 and 180 min after the administration of the compounds. ED50 value was calculated by, performing probit analysis.

[4] = Traction test, muscle strength and coordination; assay type: in vivo; conditions: i.p. 50, 100, 250 and 500 mg/kg, 30-180 min, probit analysis
Experimental: as §1, §2

[5] = Cylinder test, muscle strength and coordination; assay type: in vivo; conditions: for effect on muscle strength and coordination: cylinder, traction and rotating rod tests, up to 500 mg/kg
Experimental: as §1, §2

mice = test: Passive avoidance test, latent period of the remembering process; assay type: in vivo; conditions: for effect on latent period / passive avoidance: dose not given; for increase of latent period in comparison with control group: mice
Experimental: The influence of racemic, R- and S-phenotropil on memory processes was determined by means of a passive avoidance test (PCR), by registering the latent period of the remembering process.

Rectal temperature = assay type: in vivo; conditions: i.p. 50, 100, 250 and 500 mg/kg, 30-180 min, probit analysis
Experimental: as §1, §2

Zucker fa/fa rats = test: Body mass gain in Zucker fa/fa rats, 12 weeks oral administration; assay type: in vivo
Experimental: The influence of an S-phenotropil containing composition on the body mass. Zucker fa/fa (HsdOla:Zucker-Lepfre; Harlan Laboratories) and Zucker lean line rats (HsdOla:Zucker-Lean; Harlan Laboratories) with the body mass of 100-170 g were used during the experiment. At the beginning of the experiment the animals were 6 weeks old. Standard conditions for keeping the experimental animals were ensured (air temperature 21° C.-23° C., relative air humidity 65%±10%, 12 hour light/darkness cycle). Standardised feed (R70) by the company LABFOR (Lactamin AB, Sweden) was used to feed the animals, drinking water was accessible without limitations.
S-phenotropil containing pharmaceutical composition in water or water was orally administered to the mature male rats included into the experimental group once daily in the morning: To the Zucker lean group (n=10), water p.o., to the Zucker fa/fa control group (n=10), water p.o. or to the Zucker fa/fa group S-phenotropil containing composition 50 mg/kg (n=5), p.o. The resulting values were expressed as mean values±standard error of the mean (S.E.M.) T-test was used to check the validity of the results. The results were considered valid, if the p value was less than 0.05. […] Since the increase in mass for ZuckerLean control rats is primarily connected with normal increase in muscle mass, as the animals grow, the effect of S-phenotropil in terms of the increase of ZuckerFF fat mass is 39% (FIG. 6).

[6] = nootropic activity, literature (Malykh, Sadaie 2010); cited from earlier work
[7] = Zucker fa/fa rats, 50 mg/kg p.o. once daily, mean ± S.E.M.
[8] = i.p. 50, 100, 250 and 500 mg/kg, 30-180 min, probit analysis

| Compound | locomotor effect compared with R-phenotropil [1] | doses significantly reducing duration of immobility vs control group [2] [mg/kg] | effect on muscle strength and coordination [5] | effect on latent period / passive avoidance (mice) | time for which increase in locomotor activity was retained [1] | ED50 Rotating rod [3] [mg/kg] | ED50 Traction [4] [mg/kg] | ED50 Cylinder [5, 8] [mg/kg] | effect on latent period in comparison with control group (mice; 1 mg/kg) | ED50 Rectal temperature (Rectal temperature) [mg/kg] | other results |
| --- | --- | --- | --- | --- | --- | --- | --- | --- | --- | --- | --- |
| NC(=O)CN1C[C@H](c2ccccc2)CC1=O [S-phenotropil, (S)-2-(2-oxo-4-phenylpyrrolidin-1-yl)acetamide] | statistically significantly weaker than the effect of R-enantiomer | 100 | did not affect muscle strength and coordination | does not have any effect in a passive avoidance test; also recorded: did not affect the latent period |  |  |  |  |  |  | dose for statistically significant effect on locomotor activity relative to R-phenotropil [1]: 10 times; doses inducing statistically significant increase in locomotor activity vs control animals ([1]; single i.p. injection): 50 mg/kg; ED50 ([3]; in vivo, intraperitoneal): > 500 mg/kg; ED50 ([4]; in vivo, intraperitoneal): > 500 mg/kg; ED50 ([5]; in vivo, intraperitoneal, i.p. 50, 100, 250 and 500 mg/kg, 30-180 min, probit analysis): > 500 mg/kg; ED50 (Rectal temperature; in vivo, intraperitoneal): > 500 mg/kg; effect on weight increase (Zucker fa/fa rats; Zucker FF rats, 12 weeks, 50 mg/kg p.o.): statistically significantly reduced the weight increase; Increase in fat mass in Week 12 (Zucker fa/fa rats; [7]): 106 ± 7 g; Weight increase in Week 12 (Zucker fa/fa rats; [7]): 2645 ± 30*^, # AUC units; reduction of total weight gain (Zucker fa/fa rats; Zucker fa/fa rats, 50 mg/kg p.o., 12 weeks): 22%; effect in terms of the increase of ZuckerFF fat mass (Zucker fa/fa rats; Zucker fa/fa rats, 50 mg/kg p.o., 12 weeks, relative to Zucker lean growth): 39% |
| NC(=O)CN1C[C@@H](c2ccccc2)CC1=O [R-phenotropil] |  |  |  | considerably affects memory | up to 240 min | 320 ± 60 | 250 ± 40 | 258 ± 25 | significantly increased the latent period | >500 | reduction of duration of immobility in comparison with control group ([2]; 100 mg/kg i.p., 30 min): 8 times; antidepressive effect compared with the other tested compounds / control ([2]; i.p., 30 min after injection): significantly higher in comparison with racemic and S-phenotropil; increase of latent period in comparison with control group (mice; 1 mg/kg): 195%; increase of latent period in comparison with control group (mice; 10 mg/kg): 185% |
| NC(=O)CN1CC(c2ccccc2)CC1=O (racemic) [Phenotropil racemate] | less active than R-phenotropil | 100 | did not affect muscle strength and coordination |  | up to 180 min | >500 | >500 | >500 | significantly increased the latent period | >500 | activity relative to piracetam [6]: 30-60 times |
